How the values were obtained:
[1] = Penetration of the blood-brain barrier: plasma and brain concentrations after a single oral dose; format: in vivo, Male CD-1 mice; settings: mice, single dose 100 mg/kg oral gavage
Method: The compound of Formula I was tested to determine bioavalability in tissues of the brain and CNS.
Male CD-1 mice (N=3/group) received a single dose of lapatinib or the compound of Formula I at 100 mg/kg via oral gavage. Animals were not food fasted prior to dosing. Dose volumes were calculated based on the animals' body weights measured before the study.
Plasma and tissue samples were collected 1, 4, 8 and 24 hours post dose (4 time-points/group, and 3 animals/time-point). Whole blood samples were collected into a Na heparin containing tube. Within 30 minutes of collection, the samples were centrifuged at approximately 3,000×g for 10 minutes at 2 to 8° C. to obtain plasma. The plasma samples were divided into 2 aliquots by transferring into 2 cryogenic vials and stored in a freezer at −75±15° C. prior to analysis. Tissues were collected after the blood was collected. Tissues (brain, liver and kidneys) were washed with ice-cold PBS, and the weight was measured and recorded. Each tissue was transferred into a glass vial and stored in a freezer at −75±15° C. prior to sample analysis.

[2] = Penetration of the blood-brain barrier by quantitative whole body autoradiography; format: in vivo, Lister Hooded partially pigmented male rats; settings: rats
Method: The compound of Formula 1 was tested to determine bio-distribution in tissues of the brain and CNS.
Lister Hooded partially pigmented male rats (N=1 rat per time point) received a single dose of the compound of Formula 1 at 30 mg/kg body weight (^14C labeled, 3.7 MBq/kg body weight) via oral gavage. Animals were not fasted prior to dosing.
Six rats (age 8-10 weeks old) were administered a single oral dose of [^14C]-labeled Formula 1; total dose of 30 mg/kg and a total radioactivity dose of 3.7 MBq/kg (100 μCi/kg). One rat/time point was euthanized by CO2 overdose at each of the following times after dose administration: 1, 6, 24, 72, 120 and 168 hours, followed by immediate snap freezing in hexane/solid CO2, subsequent freezing at −20° C., followed by whole-body autoradiography.

[3] = system: GL261-luc2 luciferase expressing cells; assay: Efficacy alone or in combination with irradiation in an intracranial glioma model in mice; format: in vivo, C57BL/6 albino female mice; settings: 70 mg/kg once daily, 5 days on/2 days off, oral gavage, FIG. 2
Method: The compound of Formula 1 was tested to determine antitumor effects when tumors are growing in the brain. GL261-luc2 luciferase expressing cells were implanted intracranially (2 mm right lateral and 1 mm anterior from Bregma, 2-3 mm down from burr hole) into C57BL/6 albino female mice (N=14 per treatment group). Beginning 8 days after cell injection, mice received vehicle or the compound of Formula I at 70 mg/kg body weight (once daily, 5 days on/2 days off schedule) via oral gavage, with or without head-only irradiation (once daily for 5 days). Tumor burden in the brain was evaluated utilizing bioluminescence.

[4] = comparator in FIG. 1, 100 mg/kg oral gavage in mice; cited from earlier work

Concentration observed in CNS tissue compared with blood ([1]; FIG. 1)	Time for which the CNS tissue concentration remained higher than in blood ([1]; duration of the assay)	Concentrations of radioactivity in brain compared with blood ([2]; single oral dose 30 mg/kg 14C labeled (3.7 MBq/kg), at 6 and 24 hours after dosing)	SMILES	Crossing of the blood brain barrier / concentrations in CNS and brain tissue ([1]; samples 1, 4, 8 and 24 hours post dose, FIG. 1)	Penetration of the blood brain barrier ([2]; single oral dose 30 mg/kg 14C labeled, whole-body autoradiography)	Growth of glioma tumors in the brain (tumor burden by bioluminescence) ([3]; from 8 days after cell injection, alone)	Anti-tumor effects of irradiation on tumors in the brain (tumor burden by bioluminescence) ([3]; with head-only irradiation once daily for 5 days)	Crossing of the blood-brain barrier (comparator, as stated in legend of FIG. 1) [4]
substantially higher	at least 24 hours	comparable to that in blood	COc1cc2c(Nc3ccc(Cl)c(Cl)c3F)ncnc2cc1OCC1C[C@@H]2CN(C)C[C@@H]2C1 (stereo partly drawn) [Formula 1, N-(3,4-dichloro-2-fluorophenyl)-7-({[(3aR,6aS)-2-methyloctahydrocyclopenta[c]pyrrol-5-yl]methyl}oxy)-6-(methyloxy)quinazolin-4-amine]	crossed the blood brain barrier and attained high concentrations in CNS and brain tissue	good penetration of the blood brain barrier	reduced the growth of glioma tumors in the brain	increased the anti-tumor effects of irradiation on tumors in the brain	
			CS(=O)(=O)CCNCc1ccc(-c2ccc3ncnc(Nc4ccc(OCc5cccc(F)c5)c(Cl)c4)c3c2)o1 [lapatinib]					does not cross the blood-brain barrier

— patent publication US10080752B2, “Treatment of brain and central nervous system tumors” (KADMON CORPORATION LLC, priority 2014, dated 2018)
